Molecules are shown by their SMILES. Read-outs that look alike come from different tables or passages of the source.

As a reminder, the EC50 is the concentration giving half of the maximal effect.

For one data set, the target named is GLP-1R (Homo sapiens, UniProt P43220). Briefly: GLP-1R activation: cAMP increase in CHO cells stably expressing GLP-1R. The following applies: read-out: EC50. In kind it is cell-based.
Data set [1] is described as follows: Microsomal stability, human liver microsomes (predicted hepatic clearance). The note with it: predicted from in vitro microsomal stability data.
Setting [2] is: cAMP increase, CHO cells stably expressing GLP-1R, 10 point dose response, 30 minutes incubation.

Chain of GLP-1R (P43220 24-463): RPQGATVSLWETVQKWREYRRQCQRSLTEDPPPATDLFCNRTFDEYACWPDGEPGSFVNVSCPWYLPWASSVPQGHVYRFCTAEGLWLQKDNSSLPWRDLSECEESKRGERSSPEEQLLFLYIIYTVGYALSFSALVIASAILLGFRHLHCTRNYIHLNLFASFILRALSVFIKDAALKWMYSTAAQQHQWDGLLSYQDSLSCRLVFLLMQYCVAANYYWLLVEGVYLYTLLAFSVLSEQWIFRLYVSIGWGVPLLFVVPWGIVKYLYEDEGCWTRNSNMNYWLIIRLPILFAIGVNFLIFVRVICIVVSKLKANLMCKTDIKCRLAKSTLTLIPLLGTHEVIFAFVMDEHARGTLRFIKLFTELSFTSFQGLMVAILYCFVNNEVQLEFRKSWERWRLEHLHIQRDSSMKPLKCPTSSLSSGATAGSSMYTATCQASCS

`CS(=O)(=O)N1CCC[C@@H]1Cn1c(Cc2cc(F)c(-c3cccc(OCc4ccc(C#N)cc4F)n3)cc2F)nc2ccc(C(=O)O)cc21` [Example 735]: on GLP-1R, the EC50 was 1.7 nM. For the same molecule, the “Predicted Hepatic Clearance (Pred. Cl.)” value in data set [1] was 7.17 mL/min/kg.
As for `N#Cc1ccc(COc2cccc(-c3cc(F)c(Cc4nc5ccc(C(=O)O)cc5n4CC45CC(C4)C(C(F)(F)F)O5)cc3F)n2)c(F)c1` (stereo not drawn) [Example 737], at GLP-1R (setting [2]), the EC50 worked out at 1.89 nM. Further, the “Predicted Hepatic Clearance (Pred. Cl.)” value in data set [1] was 1.83 mL/min/kg.
The matching figures for `N#Cc1ccc(COc2cccc(-c3cc(F)c(Cc4nc5ccc(C(=O)O)cc5n4CC45CCC(CO4)C5)cc3F)n2)c(F)c1` (stereo not drawn) [Example 738]: 1.87 nM and 9.33 mL/min/kg.
Regarding `COCCC1(Cn2c(Cc3cc(F)c(-c4cccc(OCc5ccc(C#N)cc5F)n4)cc3F)nc3ccc(C(=O)O)cc32)CC1` [Example 739], the EC50 at GLP-1R (setting [2]) was found to be 0.74 nM. The “Predicted Hepatic Clearance (Pred. Cl.)” value in data set [1] was 1.83 mL/min/kg.
For `N#Cc1ccc(COc2cccc(-c3cc(F)c(Cc4nc5ccc(C(=O)O)cc5n4CC4CC5CCN4CC5)cc3F)n2)c(F)c1` (stereo not drawn) [Example 740], the concentration giving a half-maximal response (EC50) on GLP-1R is 1160 nM. The “Predicted Hepatic Clearance (Pred. Cl.)” value in data set [1] is 2.17 mL/min/kg.
For the molecule `N#Cc1ccc(COc2cccc(-c3cc(F)c(Cc4nc5ccc(C(=O)O)cc5n4CC45CCN(CC4)C5)cc3F)n2)c(F)c1` [Example 742], the EC50 at GLP-1R (setting [2]) was 54.8 nM. The “Predicted Hepatic Clearance (Pred. Cl.)” value in data set [1] was 1.83 mL/min/kg.
The matching figures for `COCC1(Cn2c(Cc3cc(F)c(-c4cccc(OCc5ccc(C#N)cc5F)n4)cc3F)nc3ccc(C(=O)O)cc32)CCC1` [Example 743]: 2.48 nM and 6.67 mL/min/kg.
Turning to `CO[C@H]1C[C@@H](Cn2c(Cc3cc(F)c(-c4cccc(OCc5ccc(C#N)cc5F)n4)cc3F)nc3ccc(C(=O)O)cc32)C1` [Example 744], the EC50 on GLP-1R (setting [2]) is 10.6 nM. In data set [1], the “Predicted Hepatic Clearance (Pred. Cl.)” value is 1.83 mL/min/kg.
For `CO[C@H]1C[C@H](Cn2c(Cc3cc(F)c(-c4cccc(OCc5ccc(C#N)cc5F)n4)cc3F)nc3ccc(C(=O)O)cc32)C1` [Example 745], in that order: 83.5 nM and 1.83 mL/min/kg.
For `COC1(Cn2c(Cc3cc(F)c(-c4cccc(OCc5ccc(C#N)cc5F)n4)cc3F)nc3ccc(C(=O)O)cc32)CC1` [Example 746], the EC50 at GLP-1R (setting [2]) stood at 0.87 nM. Moreover, the “Predicted Hepatic Clearance (Pred. Cl.)” value in data set [1] was 5 mL/min/kg.
For `COC1(Cn2c(Cc3cc(F)c(-c4cccc(OCc5ccc(C#N)cc5F)n4)cc3F)nc3ccc(C(=O)O)cc32)CCC1` [Example 747], in that order: 0.81 nM and 7.33 mL/min/kg.
The matching figures for `Cc1nnc(Cn2c(Cc3cc(F)c(-c4cccc(OCc5ccc(C#N)cc5F)n4)cc3F)nc3ccc(C(=O)O)cc32)o1` [Example 748]: 1320 nM and 1.83 mL/min/kg.
`O=C(O)c1ccc2nc(Cc3c(F)cc(-c4cccc(OCc5ccc(C(F)F)cc5F)n4)c(F)c3F)n(Cc3ncco3)c2c1` [Example 749]: at GLP-1R (setting [2]), the concentration for a half-maximal effect (EC50) came to 0.33 nM. The “Predicted Hepatic Clearance (Pred. Cl.)” value in data set [1] is 4.33 mL/min/kg.
For `COCCn1c(Cc2c(F)cc(-c3cccc(OCc4ccc(C(F)F)cc4F)n3)c(F)c2F)nc2ccc(C(=O)O)cc21` [Example 750], in that order: 1.26 nM and 4.17 mL/min/kg.
For `N#CCC1(Cn2c(Cc3cc(F)c(-c4ccnc(OCc5ccc(C(F)F)cc5F)n4)cc3F)nc3ccc(C(=O)O)cc32)CC1` [Example 751], in that order: 0.19 nM and 7.17 mL/min/kg.
The matching figures for `COCCn1c(Cc2cc(F)c(-c3ccc(F)c(OCc4ccc(C(F)F)cc4F)n3)cc2F)nc2ccc(C(=O)O)cc21` [Example 752]: 0.51 nM and 1.83 mL/min/kg.
For `COCCn1c(Cc2cc(F)c(-c3cccc(OCc4ccc(C#N)cc4F)n3)cc2CO)nc2ccc(C(=O)O)cc21` [Example 753], the concentration for a half-maximal effect (EC50) at GLP-1R (setting [2]) is 0.74 nM. The “Predicted Hepatic Clearance (Pred. Cl.)” value in data set [1] is 10.3 mL/min/kg.
For `O=C(O)c1ccc2nc(Cc3cc(F)c(-c4nccc(OCc5ccc(C(F)(F)F)cc5F)n4)cc3F)n(C[C@@H]3CCO3)c2c1` [Example 754], in that order: 0.15 nM and 6 mL/min/kg.
For the molecule `N#Cc1cc(F)c(COc2ccnc(-c3cc(F)c(Cc4nc5ccc(C(=O)O)cc5n4C[C@@H]4CCO4)cc3F)n2)cc1F` [Example 755], the EC50 on GLP-1R (setting [2]) turned out to be 0.42 nM. Besides, the “Predicted Hepatic Clearance (Pred. Cl.)” value in data set [1] was 9.83 mL/min/kg.
For `O=C(O)c1ccc2nc(Cc3c(F)cc(-c4cccc(OCc5ccc(C(F)F)cc5F)n4)c(F)c3F)n(CC34CC(CO3)C4)c2c1` [Example 756], in that order: 1.42 nM and 7.67 mL/min/kg.
The matching figures for `O=C(O)c1ccc2nc(Cc3c(F)cc(-c4cccc(OCc5ccc(C(F)F)cc5F)n4)c(F)c3F)n(C[C@@H]3CCO3)c2c1` [Example 758]: 0.03 nM and 4.5 mL/min/kg.
For `O=C(O)c1ccc2nc(Cc3cc(F)c(-c4cccc(OCc5ccc(Cl)nc5OC(F)F)n4)cc3F)n(C[C@@H]3CCO3)c2c1` [Example 759], in that order: 0.64 nM and 1.83 mL/min/kg.
Turning to `N#Cc1ccc(COc2ccc(F)c(-c3cc(F)c(Cc4nc5c(F)cc(C(=O)O)cc5n4CC4(CF)CC4)cc3F)n2)c(F)c1` [Example 760], the EC50 on GLP-1R (setting [2]) amounted to 0.26 nM. For the same molecule, the “Predicted Hepatic Clearance (Pred. Cl.)” value in data set [1] was 6.5 mL/min/kg.
Take `COCCn1c(Cc2cc(F)c(-c3ccc(F)c(OCc4ccc(C(F)(F)F)cc4F)n3)cc2F)nc2c(F)cc(C(=O)O)cc21` [Example 761]: the EC50 on GLP-1R (setting [2]) worked out at 0.51 nM. In addition, the “Predicted Hepatic Clearance (Pred. Cl.)” value in data set [1] was 1.83 mL/min/kg.
The matching figures for `COCCn1c(Cc2cc(F)c(-c3ccc(F)c(OCc4ccc(C(F)F)cc4F)n3)cc2F)nc2c(F)cc(C(=O)O)cc21` [Example 762]: 0.9 nM and 1.83 mL/min/kg.
The matching figures for `COCCn1c(Cc2cc(F)c(-c3ccc(F)c(OCc4ccc(C#N)cc4F)n3)cc2F)nc2c(F)cc(C(=O)O)cc21` [Example 764]: 0.76 nM and 3.17 mL/min/kg.
As for `O=C(O)c1cc(F)c2nc(Cc3cc(F)c(-c4ccc(F)c(OCc5ccc(C(F)(F)F)cc5F)n4)cc3F)n(C[C@@H]3CCO3)c2c1` [Example 765], the EC50 at GLP-1R (setting [2]) worked out at 0.51 nM. In data set [1], the “Predicted Hepatic Clearance (Pred. Cl.)” value was 1.83 mL/min/kg.
For `N#Cc1cc(F)c(COc2nc(-c3cc(F)c(Cc4nc5c(F)cc(C(=O)O)cc5n4C[C@@H]4CCO4)cc3F)ccc2F)cc1F` [Example 766], in that order: 0.13 nM and 3 mL/min/kg.
For `O=C(O)c1cc(F)c2nc(Cc3cc(F)c(-c4ccc(F)c(OCc5ccc(C(F)F)cc5F)n4)cc3F)n(C[C@@H]3CCO3)c2c1` [Example 767], in that order: 0.51 nM and 1.83 mL/min/kg.
The matching figures for `N#Cc1ccc(COc2nc(-c3cc(F)c(Cc4nc5c(F)cc(C(=O)O)cc5n4C[C@@H]4CCO4)cc3F)ccc2F)c(F)c1` [Example 768]: 0.04 nM and 2.75 mL/min/kg.

These data come from patent US11702404B2, “GLP-1R modulating compounds” (priority 2019, dated 2023).
